Test results: ChEMBL document CHEMBL4622974, “Leveraging an Open Science Drug Discovery Model to Develop CNS-Penetrant ALK2 Inhibitors for the Treatment of Diffuse Intrinsic Pontine Glioma” (J Med Chem, 2020)
The source made the active and inactive calls. The rule behind the calls is not given here.

Assays:
Activin receptor type-1B = biological target: T1, Activin receptor type-1B (Homo sapiens, UniProt P36896); assay: Inhibition of human ALK4 using casein as substrate in presence of [gamma-33P]-ATP by radiometric hotspot assay; assay type: ADME
T1 sequence (P36896 whole entry): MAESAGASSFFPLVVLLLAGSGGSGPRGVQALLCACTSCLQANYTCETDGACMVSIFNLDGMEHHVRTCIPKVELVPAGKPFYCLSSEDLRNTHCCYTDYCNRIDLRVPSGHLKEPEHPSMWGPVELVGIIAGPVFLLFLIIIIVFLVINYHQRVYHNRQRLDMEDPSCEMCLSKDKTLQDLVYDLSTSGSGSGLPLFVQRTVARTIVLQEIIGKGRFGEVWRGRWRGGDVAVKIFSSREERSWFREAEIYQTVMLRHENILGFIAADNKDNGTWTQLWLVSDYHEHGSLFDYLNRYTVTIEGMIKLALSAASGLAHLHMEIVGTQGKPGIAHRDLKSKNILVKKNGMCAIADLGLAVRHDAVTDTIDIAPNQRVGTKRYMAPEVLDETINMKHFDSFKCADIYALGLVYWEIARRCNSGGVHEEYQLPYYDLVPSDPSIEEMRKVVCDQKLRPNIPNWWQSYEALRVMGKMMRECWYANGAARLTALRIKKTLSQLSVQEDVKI

[1] = biological target: Tyrosine-protein kinase ABL1 (Homo sapiens, UniProt P00519); assay: Inhibition of ABL1 (unknown origin)
[2] = biological target: Protein-tyrosine kinase 6 (Homo sapiens, UniProt Q13882); assay: Inhibition of BRK (unknown origin)
[3] = biological target: Epithelial discoidin domain-containing receptor 1 (Homo sapiens, UniProt Q08345); assay: Inhibition of DDR1 (unknown origin)
Misshapen-like kinase 1 = Misshapen-like kinase 1 (Homo sapiens, UniProt Q8N4C8); assay: Inhibition of MINK (unknown origin)
[4] = biological target: TRAF2 and NCK-interacting protein kinase (Homo sapiens, UniProt Q9UKE5); assay: Inhibition of TNIK (unknown origin)
[5] = biological target: Mitogen-activated protein kinase kinase kinase 20 (Homo sapiens, UniProt Q9NYL2); assay: Inhibition of ZAK (unknown origin)
[6] = Stability in CD1 mouse liver microsomes assessed as compound remaining at 1 uM incubated for 60 mins by LC/MS analysis; assay type: ADME, Microsome; conditions: read-out: Stability
[7] = Stability in human liver microsomes assessed as compound remaining at 1 uM incubated for 60 mins by LC/MS analysis; assay type: ADME, Microsome; conditions: read-out: Stability
[8] = Protein binding in human plasma at 5 uM after 4 hrs by rapid equilibrium dialysis; assay type: ADME, cell-free; conditions: read-out: PPB (converted)
[9] = Protein binding in human plasma assessed as free fraction at 5 uM after 4 hrs by rapid equilibrium dialysis; assay type: ADME, cell-free
[10] = Half life in CD1 mouse liver microsomes at 1 uM incubated for 60 mins by LC/MS analysis; assay type: ADME, Microsome
[11] = Half life in human liver microsomes at 1 uM incubated for 60 mins by LC/MS analysis; assay type: ADME, Microsome
[12] = Clearance in CB17 SCID mouse at 2 mg/kg, iv after 0.25 to 24 hrs by LC/MS/MS method; assay type: ADME, organism-based; conditions: in vivo
[13] = Clearance in SD rat at 2 mg/kg, iv after 0.25 to 24 hrs by LC/MS/MS method; assay type: ADME, organism-based; conditions: in vivo
[14] = Volume of distribution at steady state in CB17 SCID mouse at 2 mg/kg, iv after 0.25 to 24 hrs by LC/MS/MS method; assay type: ADME, organism-based; conditions: in vivo, read-out: Vdss
[15] = Volume of distribution at steady state in SD rat at 2 mg/kg, iv after 0.25 to 24 hrs by LC/MS/MS method; assay type: ADME, organism-based; conditions: in vivo, read-out: Vdss
[16] = Half life in CB17 SCID mouse at 10 mg/kg, po after 0.25 to 24 hrs by LC/MS/MS method; assay type: ADME, organism-based; conditions: in vivo
[17] = Half life in SD rat at 10 mg/kg, po after 0.25 to 24 hrs by LC/MS/MS method; assay type: ADME, organism-based; conditions: in vivo
[18] = Cmax in CB17 SCID mouse at 10 mg/kg, po after 0.25 to 24 hrs by LC/MS/MS method; assay type: ADME, organism-based; set-up: dose 10 mg/kg, route oral; conditions: in vivo
[19] = Cmax in SD rat at 10 mg/kg, po after 0.25 to 24 hrs by LC/MS/MS method; assay type: ADME, organism-based; set-up: dose 10 mg/kg, route oral; conditions: in vivo
[20] = AUCinfinity in CB17 SCID mouse at 10 mg/kg, po after 0.25 to 24 hrs by LC/MS/MS method; assay type: ADME, organism-based; set-up: dose 10 mg/kg, time infinity, route oral; conditions: in vivo
[21] = AUCinfinity in SD rat at 10 mg/kg, po after 0.25 to 24 hrs by LC/MS/MS method; assay type: ADME, organism-based; set-up: dose 10 mg/kg, route oral, time infinity; conditions: in vivo
[22] = Oral bioavailability in CB17 SCID mouse at 10 mg/kg after 0.25 to 24 hrs by LC/MS/MS method; assay type: ADME, organism-based; conditions: in vivo
[23] = Oral bioavailability in SD rat at 10 mg/kg after 0.25 to 24 hrs by LC/MS/MS method; assay type: ADME, organism-based; conditions: in vivo
[24] = Ratio of drug level in brain to plasma in CB17 SCID mouse at 10 mg/kg, po measured at 4 h; assay type: ADME, organism-based; conditions: brain and plasma, read-out: BPR
[25] = Ratio of drug level in brain to plasma in CB17 SCID mouse at 100 mg/kg, po measured at 4 h; assay type: ADME, organism-based; conditions: brain and plasma, read-out: BPR
[26] = Toxicity in CB17 SCID mouse assessed as induction of adverse effect at 2 mg/kg, iv; assay type: organism-based; conditions: in vivo
[27] = Toxicity in CB17 SCID mouse assessed as induction of adverse effect at 10 mg/kg, po; assay type: organism-based; conditions: in vivo
[28] = Toxicity in CB17 SCID mouse assessed as behavioural abnormalities at 100 mg/kg, po measured after 24 hrs; assay type: organism-based; conditions: in vivo
[29] = Toxicity in CB17 SCID mouse assessed as physical abnormalities at 100 mg/kg, po measured after 24 hrs; assay type: organism-based; conditions: in vivo
[30] = Growth inhibition of human SU-DIPG-XXI cells harboring ACVR1 G328W mutant; assay type: functional
[31] = Growth inhibition of human HSJD-DIPG-007 cells harboring ACVR1 R206H mutant; assay type: functional
[32] = biological target: Serine/threonine-protein kinase SIK2 (Homo sapiens, UniProt Q9H0K1); assay: Inhibition of SIK2 (unknown origin)
Cytochrome P450 2C8 = Cytochrome P450 2C8 (Homo sapiens, UniProt P10632); assay: Inhibition of CYP2C8 in human liver microsomes using paclitaxel as substrate incubated for 20 mins in presence of NADPH by LC/MS/MS analysis; assay type: ADME
[33] = Unbound drug level in CD-1 mouse brain at 1 mg/kg, iv measured at 2 hrs; assay type: ADME, organism-based; conditions: in vivo
[34] = Toxicity in C57BL/6 mouse assessed as body weight loss at 100 mg/kg, po QD administered for 5 days measured after 24 hrs relative to control; assay type: organism-based; conditions: in vivo
[35] = Toxicity in C57BL/6 mouse assessed as gross pathology at 25 mg/kg, po BID administered for 5 days measured after 24 hrs relative to control; assay type: organism-based; conditions: in vivo
[36] = Toxicity in C57BL/6 mouse assessed as gross pathology at 50 mg/kg, po QD administered for 5 days measured after 24 hrs relative to control; assay type: organism-based; conditions: in vivo

Epithelial discoidin domain-containing receptor 1, sequence (Q08345 whole entry, the tested form may be a part): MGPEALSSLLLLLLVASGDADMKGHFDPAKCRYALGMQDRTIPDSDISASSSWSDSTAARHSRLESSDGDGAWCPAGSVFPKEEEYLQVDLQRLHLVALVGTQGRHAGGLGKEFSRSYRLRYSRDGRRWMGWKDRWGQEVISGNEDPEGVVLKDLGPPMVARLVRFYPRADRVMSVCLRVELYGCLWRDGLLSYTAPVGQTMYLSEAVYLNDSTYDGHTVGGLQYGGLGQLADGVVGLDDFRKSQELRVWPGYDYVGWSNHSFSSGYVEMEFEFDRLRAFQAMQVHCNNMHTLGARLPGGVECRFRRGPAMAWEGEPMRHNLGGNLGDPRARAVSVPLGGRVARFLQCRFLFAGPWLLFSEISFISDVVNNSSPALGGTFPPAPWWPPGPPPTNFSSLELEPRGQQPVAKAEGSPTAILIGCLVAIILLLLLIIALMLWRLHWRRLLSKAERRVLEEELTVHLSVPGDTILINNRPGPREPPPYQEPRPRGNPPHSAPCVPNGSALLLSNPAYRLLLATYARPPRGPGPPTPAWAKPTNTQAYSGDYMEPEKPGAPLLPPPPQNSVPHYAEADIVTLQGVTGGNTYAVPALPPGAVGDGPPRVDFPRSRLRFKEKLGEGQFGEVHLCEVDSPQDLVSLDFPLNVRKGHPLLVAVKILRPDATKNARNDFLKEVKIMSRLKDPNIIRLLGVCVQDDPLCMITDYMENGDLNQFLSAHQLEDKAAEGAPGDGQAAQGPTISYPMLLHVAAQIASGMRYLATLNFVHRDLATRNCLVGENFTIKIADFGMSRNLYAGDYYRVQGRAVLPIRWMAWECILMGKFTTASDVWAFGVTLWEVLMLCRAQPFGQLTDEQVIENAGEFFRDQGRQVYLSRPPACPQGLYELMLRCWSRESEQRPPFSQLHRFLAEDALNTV
Tyrosine-protein kinase ABL1, sequence (P00519 whole entry): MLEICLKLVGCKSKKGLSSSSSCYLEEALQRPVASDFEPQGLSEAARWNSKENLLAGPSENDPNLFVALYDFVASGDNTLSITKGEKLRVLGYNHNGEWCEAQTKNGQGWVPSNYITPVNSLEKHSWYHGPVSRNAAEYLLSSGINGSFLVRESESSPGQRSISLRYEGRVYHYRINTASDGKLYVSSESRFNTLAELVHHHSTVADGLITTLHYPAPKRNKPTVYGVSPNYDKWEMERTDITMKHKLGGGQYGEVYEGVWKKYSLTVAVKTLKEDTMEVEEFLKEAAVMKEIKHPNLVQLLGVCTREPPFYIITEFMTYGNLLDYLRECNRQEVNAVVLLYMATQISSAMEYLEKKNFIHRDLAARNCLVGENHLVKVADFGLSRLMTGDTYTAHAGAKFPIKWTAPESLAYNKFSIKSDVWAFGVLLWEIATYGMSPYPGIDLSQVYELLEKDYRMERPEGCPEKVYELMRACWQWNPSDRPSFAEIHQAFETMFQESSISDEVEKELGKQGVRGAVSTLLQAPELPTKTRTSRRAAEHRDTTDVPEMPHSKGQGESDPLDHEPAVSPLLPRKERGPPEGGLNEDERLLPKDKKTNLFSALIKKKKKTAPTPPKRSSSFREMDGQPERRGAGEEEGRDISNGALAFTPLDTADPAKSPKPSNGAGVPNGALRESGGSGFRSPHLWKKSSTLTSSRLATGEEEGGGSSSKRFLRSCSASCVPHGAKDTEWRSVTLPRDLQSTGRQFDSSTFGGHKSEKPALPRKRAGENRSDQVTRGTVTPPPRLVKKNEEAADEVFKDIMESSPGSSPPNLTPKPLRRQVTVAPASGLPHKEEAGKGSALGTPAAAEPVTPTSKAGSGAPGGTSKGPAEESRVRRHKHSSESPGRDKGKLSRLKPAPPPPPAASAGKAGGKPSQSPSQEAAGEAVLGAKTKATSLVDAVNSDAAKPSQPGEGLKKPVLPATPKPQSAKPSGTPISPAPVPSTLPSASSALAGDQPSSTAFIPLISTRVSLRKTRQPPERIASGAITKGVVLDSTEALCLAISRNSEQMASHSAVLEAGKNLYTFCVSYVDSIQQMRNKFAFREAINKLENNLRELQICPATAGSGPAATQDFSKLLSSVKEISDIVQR
Cytochrome P450 2C8, sequence (P10632 whole entry): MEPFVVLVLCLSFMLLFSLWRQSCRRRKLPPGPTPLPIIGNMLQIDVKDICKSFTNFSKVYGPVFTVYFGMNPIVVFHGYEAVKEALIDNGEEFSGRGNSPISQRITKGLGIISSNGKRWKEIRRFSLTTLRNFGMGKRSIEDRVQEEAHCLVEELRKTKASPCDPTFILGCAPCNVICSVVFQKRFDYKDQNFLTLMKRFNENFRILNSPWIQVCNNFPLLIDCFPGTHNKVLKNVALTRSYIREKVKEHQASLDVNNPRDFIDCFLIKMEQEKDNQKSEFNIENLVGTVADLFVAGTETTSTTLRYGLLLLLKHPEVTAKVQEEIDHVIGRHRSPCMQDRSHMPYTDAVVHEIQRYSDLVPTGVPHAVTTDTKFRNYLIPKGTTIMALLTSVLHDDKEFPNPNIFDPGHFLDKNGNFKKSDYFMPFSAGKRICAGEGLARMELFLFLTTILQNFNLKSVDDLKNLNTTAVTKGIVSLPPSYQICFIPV
Serine/threonine-protein kinase SIK2, sequence (Q9H0K1 whole entry): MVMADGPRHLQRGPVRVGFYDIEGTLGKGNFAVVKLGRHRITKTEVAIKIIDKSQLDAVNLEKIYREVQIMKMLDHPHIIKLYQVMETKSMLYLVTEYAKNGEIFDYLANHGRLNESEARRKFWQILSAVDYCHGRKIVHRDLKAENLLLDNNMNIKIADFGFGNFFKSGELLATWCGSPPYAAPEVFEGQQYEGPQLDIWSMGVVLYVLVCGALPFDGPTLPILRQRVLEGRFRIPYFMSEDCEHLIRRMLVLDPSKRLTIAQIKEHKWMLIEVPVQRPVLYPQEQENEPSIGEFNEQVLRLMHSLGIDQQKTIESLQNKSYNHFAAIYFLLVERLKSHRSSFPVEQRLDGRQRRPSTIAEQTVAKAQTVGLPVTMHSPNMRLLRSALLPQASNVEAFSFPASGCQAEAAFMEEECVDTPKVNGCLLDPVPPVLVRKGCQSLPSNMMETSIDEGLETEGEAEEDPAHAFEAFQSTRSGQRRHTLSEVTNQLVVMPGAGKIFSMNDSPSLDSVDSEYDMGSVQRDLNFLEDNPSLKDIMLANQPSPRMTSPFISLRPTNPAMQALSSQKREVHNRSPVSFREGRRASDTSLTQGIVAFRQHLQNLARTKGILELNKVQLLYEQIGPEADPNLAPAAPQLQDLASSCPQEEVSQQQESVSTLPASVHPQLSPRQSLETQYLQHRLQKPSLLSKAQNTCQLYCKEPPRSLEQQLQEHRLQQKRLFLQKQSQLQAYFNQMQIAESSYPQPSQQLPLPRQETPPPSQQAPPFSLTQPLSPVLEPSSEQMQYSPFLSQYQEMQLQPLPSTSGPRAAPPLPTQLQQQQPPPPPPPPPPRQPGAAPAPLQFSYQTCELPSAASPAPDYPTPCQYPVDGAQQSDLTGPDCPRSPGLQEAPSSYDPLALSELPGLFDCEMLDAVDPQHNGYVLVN

SMILES	IC50 (Activin receptor type-1B) [µM]	remaining at 1 h, 1 µM [6] [%]	remaining at 1 h, 1 µM [7] [%]	fraction unbound at 4 h, 5 µM [8]	fraction unbound at 4 h, 5 µM [9]	half-life at 1 µM [10] [h]	half-life at 1 µM [11] [h]	clearance [12] [mL/min/kg]	clearance [13] [mL/min/kg]	Vd [14] [L/kg]	Vd [15] [L/kg]	half-life [16] [h]	half-life [17] [h]	Cmax [18] [µM]	Cmax [19] [µM]	AUC(0-inf) [20] [µM·h]	AUC(0-inf) [21] [µM·h]	bioavailability [22] [%]	bioavailability [23] [%]	Kp at 4 h [25]	further results
COc1cc(-c2cncc(-c3ccc(C4CCN(C)CC4)cc3)c2C)cc(OC)c1OC	> 2	55.5	71.2	0.05	0.05	> 1	> 1	8.9	15.1	2.44	4.33	3.67	3.9	4.74	1.16	32.4	12.9	74	50	1.55	inhibition [1]: Active; inhibition [2]: Active; inhibition [3]: Active; inhibition (Misshapen-like kinase 1): Active; inhibition [4]: Active; inhibition [5]: Active; Kp at 4 h [24]: 0.82; Activity [26]: Non-Toxic; Activity [27]: Non-Toxic; Activity [28]: Non-Toxic; Activity [29]: Non-Toxic; GI50 [30]: 0.214 µM; GI50 [31]: 0.036 µM
COc1cc(-c2cncc(-c3ccc(N4CCNCC4)cc3)c2C)cc(OC)c1OC	1.34	64.6	71.4	0.057	0.057	> 1	> 1	12.7	22.1	2.05	5.22	3.11	3.58	6.16	1.28	51.7	17.4	100	96	1.1	IC50 [1]: 0.336 to 0.924 µM; IC50 [2]: 0.336 to 0.924 µM; IC50 [3]: 0.041 µM; IC50 (Misshapen-like kinase 1): 0.336 to 0.924 µM; IC50 [32]: 0.336 to 0.924 µM; IC50 [4]: 0.096 µM; IC50 [5]: 0.336 to 0.924 µM; IC50 (Cytochrome P450 2C8): > 30 µM; Drug uptake(free) [33]: 3.7 nM; Activity [26]: Non-Toxic; Activity [27]: Non-Toxic; Activity [28]: Non-Toxic; Activity [29]: Non-Toxic; Activity [34]: Non-Toxic; Activity [35]: Non-Toxic; Activity [36]: Non-Toxic; GI50 [30]: 0.052 µM; GI50 [31]: 0.13 µM
